Measured values as given in patent US8603497B2, “Composition for local anesthesia” (National University Corporation Okayama University, priority 2008, dated 2013).
Structures can show the parent of a compound that is named as a salt.

What was measured:
Hartley male guinea pigs [1] = assay: peripheral blood flow by Doppler rheometer after intradermal injection; type: in vivo, guinea pig; conditions: 0.1 ml intradermal, every 5 minutes until 30 minutes, ratio to baseline; FIG. 2
Description: The hair of the back was clipped and then three sites around the center of the back were marked with a felt-tipped pen at sufficient intervals. A blood flow value was measured by attaching a Doppler rheometer (ALF21RD; ADVANCE CO., LTD., Tokyo) probe and was used as a baseline value (Time 0). […] 0.1 ml each of Solutions 32, 33, and 34 obtained by the blending was intradermally injected into the three sites and the Doppler rheometer probe was fixed on the same sites. A blood flow value was time-dependently measured at an interval of 5 minutes after the injection until 30 minutes. The ratio of the blood flow value to the baseline value (0 to 1.0) was expressed as a peripheral blood flow degree and a time-dependent change at each of the injection sites was determined.

Hartley male guinea pigs [2] = assay: guinea pig wheal method (durability of local anesthetic action); conditions: for ED50 for dexmedetomidine hydrochloride alone (local anesthesia enhancing action) / ED50 for adrenaline alone (local anesthesia enhancing action): added alone to lidocaine hydrochloride; for ED50 for dexmedetomidine hydrochloride alone (local anesthesia enhancing action): calculated from scores of Solutions 1 to 5; for theoretical ED50 value in combined use / ED50 value obtained in the experiment in combined use: combined use of adrenaline and dexmedetomidine; for theoretical ED50 value in combined use: isobologram, mean ±95% confidence interval in brackets; for ED50 value obtained in the experiment in combined use: significantly different from theoretical, P<0.05 (T-test); for ED50 for adrenaline alone (local anesthesia enhancing action): calculated from scores of Solutions 6 to 10
Description: A guinea pig wheal method was employed. The hair on the back of Hartley male guinea pigs each having a body weight of 500 to 600 g was clipped. After that, 0.1 ml each of Solutions 1 to 5 blended as described above was injected intracutaneously, and the surroundings of wheals, which developed in the skin, were marked with a felt-tipped pen. Pricks were applied on six sites inside each wheal with a fixed-weight sensory needle. […] The pricks were applied every 5 minutes until 60 minutes, and the total of the number of times that an anesthetic effect was observed was used as a score to assess the durability of a local anesthetic action. A 50% effective dose (effective dose 50: ED50) for dexmedetomidine was calculated based on a score for each of Solutions 1 to 5.
Each score for Solutions 16 to 21 and Solutions 22 to 27 was calculated to assess a local anesthetic effect.
Each score for Solutions 28 to 31 was calculated to assess a local anesthetic effect.

Row | Structure (SMILES) | peripheral blood flow / peripheral vasoconstriction (Hartley male guinea pigs [1]) | ED50 for dexmedetomidine hydrochloride alone (local anesthesia enhancing action) (Hartley male guinea pigs [2]) | ED50 for dexmedetomidine hydrochloride alone (local anesthesia enhancing action) (Hartley male guinea pigs [2]; listed as Dexmedetomidine hydrochloride) | theoretical ED50 value in combined use (Hartley male guinea pigs [2]) | ED50 value obtained in the experiment in combined use (Hartley male guinea pigs [2]) | ED50 for adrenaline alone (local anesthesia enhancing action) (Hartley male guinea pigs [2]) | ED50 for adrenaline alone (local anesthesia enhancing action) (Hartley male guinea pigs [2]; listed as Adrenaline)
1 | Cc1cccc([C@H](C)c2cnc[nH]2)c1C [dexmedetomidine hydrochloride, Dexmedetomidine hydrochloride] | tended to suppress the peripheral vasoconstriction action of adrenaline | 78.3 nM | 78.3 nM | 39.2 nM | 11.3 nM | – | –
2 | CNCC(O)c1ccc(O)c(O)c1 (stereo not drawn) [adrenaline] | – | – | – | 2960 nM | 788 nM | 5910 nM | 5910 nM
